Values joined by “and” are separate entries in the source; they are usually repeats but may differ in a detail not shown here. Identical values can stand only once.
System: thromboxane A2 challenged PAH-minipig
Experiment: Haemodynamics in the anesthetized thromboxane challenged minipig, intratracheal dry powder (PAP, BP)
Assay type: in vivo, Göttingen Minipigs
Conditions: for BP (absolute values) / PAP (absolute values): lactose vehicle first, test powder 1.5 mg/4 kg i.t. @90 min, each animal (n=3); for % changes vs. baseline on PAP: each animal
Description: Healthy Göttingen Minipigs® Ellegaard (Ellegaard, Denmark) of both sexes and having a weight of 2-6 kg were used. The animals were sedated by i.m. administration of about 25 mg/kg ketamine and about 10 mg/kg azaperone. Anaesthesia was initiated by i.v. administration of about 2 mg/kg ketamine and about 0.3 mg/kg midazolam. Maintenance of anaesthesia was by i.v. administration of about 7.5-30 mg/kg/h ketamine and about 1-4 mg/kg/h midazolam (rate of infusion 1-4 ml/kg/h) and about 150 μg/kg/h pancuronium bromide (for example Pancuronium-Actavis). After intubation, the animals were ventilated by the ventilator at a constant respiratory volume (10-12 ml/kg, 35 breaths/min; Avea®, Viasys Healthcare, USA, or Engström Carestation, GE Healthcare, Freiburg, Germany) such that an end-tidal CO2 concentration of about 5% was achieved. Ventilation was performed with room air, enriched with about 40% oxygen (normoxia). For the measurement of the haemodynamic parameters such as pulmonary arterial pressure (PAP), blood pressure (BP) and heart rate (HR), catheters were inserted into the carotid artery to measure the blood pressure, and a Swan-Ganz® catheter was introduced in a flow-directed manner via the jugular vein into the pulmonary artery. The haemodynamic signals were recorded and evaluated by means of pressure transducers (Combitransducer, B. Braun, Melsungen, Germany)/amplifiers and Ponemah® as data acquisition software.
As reference pure Lactose vehicle was applied in the beginning of each experiment.

[1] = time 0 min, 375 μg/kg i.t., sesquihydrate
[2] = time 10 min, 375 μg/kg i.t., sesquihydrate
[3] = time 20 min, 375 μg/kg i.t., sesquihydrate
[4] = time 20 min, listed as ex. 6e, sesquihydrate
[5] = time 30 min, listed as ex. 6e, sesquihydrate
[6] = time 40 min, listed as ex. 6e, sesquihydrate
[7] = time 50 min, 375 μg/kg i.t., sesquihydrate
[8] = time 50 min, listed as ex. 6e, sesquihydrate
[9] = time 60 min, 375 μg/kg i.t., sesquihydrate
[10] = time 60 min, listed as ex. 6e, sesquihydrate
[11] = time 70 min, 375 μg/kg i.t., sesquihydrate
[12] = time 70 min, listed as ex. 6e, sesquihydrate
[13] = time 80 min, 375 μg/kg i.t., sesquihydrate
[14] = time 80 min, listed as ex. 6e, sesquihydrate
[15] = time 90 min, 375 μg/kg i.t., sesquihydrate
[16] = time 90 min, listed as ex. 6e, sesquihydrate
[17] = time 100 min, 375 μg/kg i.t., sesquihydrate
[18] = time 100 min, listed as ex. 6e, sesquihydrate
[19] = time 110 min, 375 μg/kg i.t., sesquihydrate
[20] = time 110 min, listed as ex. 6e, sesquihydrate
[21] = time 120 min, 375 μg/kg i.t., sesquihydrate
[22] = time 120 min, listed as ex. 6e, sesquihydrate
[23] = time 130 min, listed as ex. 6e, sesquihydrate
[24] = time 140 min, listed as ex. 6e, sesquihydrate

Compound: O.O.O.O=C(O)c1ccc(CCN(CCc2ccccc2OCc2ccc(-c3ccc(C(F)(F)F)cc3)cc2Cl)[C@H]2CCCc3nc(C(=O)O)ccc32)cc1.O=C(O)c1ccc(CCN(CCc2ccccc2OCc2ccc(-c3ccc(C(F)(F)F)cc3)cc2Cl)[C@H]2CCCc3nc(C(=O)O)ccc32)cc1 [example 6e, (5S)—{[2-(4-Carboxyphenyl)ethyl][2-(2-{[3-chloro-4′-(trifluoromethyl)biphenyl-4-yl]methoxy}phenyl)-ethyl]amino}-5,6,7,8-tetrahydroquinoline-2-carboxylic acid sesquihydrate]
- systemic blood pressure (375 μg/kg i.t., within the last hour of the observation interval): slightly affected
- maximal effect achievable in this animal model (i.t. dry powder): maximal effect
- time to maximum effect after i.t. application (i.t. dry powder, 1.5 mg/4 kg animal weight): approximately 80 min
- effect on PAP and BP (i.t. via PennCentury dry powder insufflator, 1.5 mg/4 kg animal weight): decrease of PAP without any effects on BP
- efficacy with regard to PAP reduction as well as systemic BP reduction (micronized hydrates, 1.5 mg/4 kg (=375 μg/kg) i.t.): comparable efficacy
- BP (mean) [1]: 99 mmHg and 104 mmHg and 117 mmHg
- PAP(mean) [1]: 41.9 mmHg and 37.1 mmHg and 37.5 mmHg
- BP (mean) (time 10 min, 375 μg/kg i.t.): 99 mmHg
- BP (mean) [2]: 108 mmHg and 119 mmHg
- PAP(mean) [2]: 42.0 mmHg and 37.3 mmHg and 38.6 mmHg
- BP (mean) (time 20 min, 375 μg/kg i.t.): 99 mmHg
- BP (mean) [3]: 109 mmHg and 118 mmHg
- PAP(mean) [3]: 41.4 mmHg
- BP (absolute values) (time 20 min): 99 mmHg
- BP (absolute values) [4]: 107 mmHg and 119 mmHg
- PAP (absolute values) [4]: 42.0 mmHg and 36.4 mmHg and 37.5 mmHg
- BP (mean) (time 30 min, 375 μg/kg i.t.): 100 mmHg
- BP (mean) (time 30 min, 375 μg/kg i.t., sesquihydrate): 107 mmHg and 118 mmHg
- BP (absolute values) [5]: 99 mmHg and 104 mmHg and 117 mmHg
- PAP (absolute values) [5]: 41.9 mmHg and 37.1 mmHg and 37.5 mmHg
- BP (mean) (time 40 min, 375 μg/kg i.t.): 100 mmHg
- BP (absolute values) (time 40 min): 99 mmHg
- BP (absolute values) [6]: 108 mmHg and 119 mmHg
- PAP (absolute values) [6]: 42.0 mmHg and 37.3 mmHg and 38.6 mmHg
- BP, % changes vs. prevalues [7]: 101.4% and 98.5% and 100.3%
- PAP, % changes vs. prevalues [7]: 98.3% and 96.2% and 101.2%
- BP (absolute values) (time 50 min): 99 mmHg
- BP (absolute values) [8]: 109 mmHg and 118 mmHg
- PAP (absolute values) [8]: 41.4 mmHg and 37.4 mmHg and 39.8 mmHg
- BP, % changes vs. prevalues [9]: 102.5% and 100.3% and 99.4%
- PAP, % changes vs. prevalues [9]: 97.2% and 99.6% and 101.1%
- BP (absolute values) (time 60 min): 100 mmHg
- BP (absolute values) [10]: 107 mmHg and 118 mmHg
- PAP (absolute values) [10]: 41.4 mmHg and 36.8 mmHg and 41.2 mmHg
- BP, % changes vs. prevalues [11]: 99.4% and 96.0% and 98.6%
- PAP, % changes vs. prevalues [11]: 97.8% and 97.5% and 98.5%
- BP (absolute values) (time 70 min): 100 mmHg
- BP (absolute values) [12]: 109 mmHg and 118 mmHg
- PAP (absolute values) [12]: 41.0 mmHg and 37.4 mmHg and 41.3 mmHg
- % changes vs. baseline on PAP (time 80 min (baseline = 100.0), i.t. dry powder): 100.0%
- BP, % changes vs. prevalues [13]: 101.4% and 96.8% and 97.7%
- PAP, % changes vs. prevalues [13]: 87.8% and 94.9% and 87.9%
- BP (absolute values) [14]: 101 mmHg and 114 mmHg and 119 mmHg
- PAP (absolute values) [14]: 40.9 mmHg and 38.1 mmHg and 40.8 mmHg
- BP, % changes vs. prevalues [15]: 101.4% and 98.5% and 96.9%
- PAP, % changes vs. prevalues [15]: 82.5% and 92.0% and 76.6%
- % changes vs. baseline on PAP (time 90 min, baseline 100.0 at 80 min, i.t. dry powder, sesquihydrate): 98.9% and 103.6% and 99.8%
- BP (absolute values) (time 90 min): 102 mmHg
- BP (absolute values) [16]: 116 mmHg and 118 mmHg
- PAP (absolute values) [16]: 40.4 mmHg and 39.5 mmHg and 40.7 mmHg
- BP, % changes vs. prevalues [17]: 101.4% and 98.5% and 96.9%
- PAP, % changes vs. prevalues [17]: 77.6% and 90.1% and 71.1%
- % changes vs. baseline on PAP (time 100 min, baseline 100.0 at 80 min, i.t. dry powder, sesquihydrate): 99.5% and 101.4% and 97.3%
- BP (absolute values) (time 100 min): 99 mmHg
- BP (absolute values) [18]: 111 mmHg and 117 mmHg
- PAP (absolute values) [18]: 40.7 mmHg and 38.7 mmHg and 39.6 mmHg
- BP, % changes vs. prevalues [19]: 99.4% and 103.7% and 96.1%
- PAP, % changes vs. prevalues [19]: 74.0% and 88.3% and 68.4%
- % changes vs. baseline on PAP (time 110 min, baseline 100.0 at 80 min, i.t. dry powder, sesquihydrate): 89.3% and 98.7% and 86.8%
- BP (absolute values) [20]: 101 mmHg and 112 mmHg and 116 mmHg
- PAP (absolute values) [20]: 36.5 mmHg and 37.6 mmHg and 35.4 mmHg
- BP, % changes vs. prevalues [21]: 99.4%
- PAP, % changes vs. prevalues [21]: 72.8% and 73.1% and 66.2%
- % changes vs. baseline on PAP (time 120 min, baseline 100.0 at 80 min, i.t. dry powder, sesquihydrate): 84.0% and 95.6% and 75.7%
- BP (absolute values) [22]: 101 mmHg and 114 mmHg and 115 mmHg
- PAP (absolute values) [22]: 34.3 mmHg and 36.4 mmHg and 30.8 mmHg
- PAP, % changes vs. prevalues (time 130 min, 375 μg/kg i.t., sesquihydrate): 69.8%
- % changes vs. baseline on PAP (time 130 min, baseline 100.0 at 80 min, i.t. dry powder, sesquihydrate): 78.9% and 93.7% and 70.2%
- BP (absolute values) [23]: 101 mmHg and 114 mmHg and 115 mmHg
- PAP (absolute values) [23]: 32.3 mmHg and 35.7 mmHg and 28.6 mmHg
- % changes vs. baseline on PAP (time 140 min, baseline 100.0 at 80 min, i.t. dry powder, sesquihydrate): 75.2% and 91.8% and 67.5%
- BP (absolute values) [24]: 99 mmHg and 120 mmHg and 114 mmHg
- PAP (absolute values) [24]: 30.8 mmHg and 35.0 mmHg and 27.5 mmHg
- % changes vs. baseline on PAP (time 150 min, baseline 100.0 at 80 min, i.t. dry powder, sesquihydrate): 74.0% and 76.0% and 65.4%

— patent US12202805B2, “Process for preparing (5S)-{[2-(4-carboxyphenyl)ethyl] |2-(2-{|3-chloro-4'-(trifluoromethyl)biphenyl-4-yl]methoxy}phenyl)ethyl]aminol-5,6,7,8-tetrahydroquinoline-2-carboxylic acid and its crystalline forms for use as pharmaceutically active compound” (Bayer Aktiengesellschaft, priority 2021, dated 2025)
